Experimental findings from patent publication US11899019B2, “Method for predicting efficacy of anti-PD-1 antibody or anti-PD-L1 antibody therapy, method for evaluating cancer grade, and method for enhancing efficacy of anti-PD-1 antibody or anti-PD-L1 antibody therapy” (J-Pharma Co., Ltd., priority 2017, dated 2024) are described below.

Data set [1] concerns PD-L1 mRNA. Put plainly: Change of PD-L1 expression level by JPH2O3, quantitative PCR in HuccT1 cells. The data set is classed as cell-based, human. To be noted: 30 μM, 24 hours treatment. As for the experimental part: (§1) The LAT1 activity was suppressed using an inhibitor JPH2O3 instead of the gene suppression using siRNA, and it was examined whether results similar to Test Example 5 would be obtained. JPH2O3 is O-(5-amino-2-phenylbenzoxazol-7-yl)methyl-3,5-dichloro-L-tyrosine. HuccT1 cells (derived from human bile duct cancer) and OST cells (derived from human fibrosarcoma of bone) were seeded in culture dishes. After treatment with 30 μM of JPH2O3 (LAT1 selective inhibitor) for 24 hours, cells were collected and mRNA expression levels of PD-L1 were analyzed by quantitative PCR.
(§2) In Table 8, the mRNA expression levels per cell are expressed as relative values, with the expression level of the control that was not treated with JPH2O3 being 1. In both HuccT1 cells and OST cells, the expression of PD-L1 was increased. […] Moreover, since the inhibition of LAT1 increased the expression of PD-L1, it is considered that the LAT1 inhibition therapy can increase the expression level of PD-L1 as well as reduce the expression level or activity of LAT1 in patients. In other words, it is considered that the expression level of PD-L1 in patients can be brought close to those in patients of the P-predominance type by the LAT1 inhibition therapy.

For data set [2], the system named is PD-L1 mRNA. Put plainly: Change of PD-L1 expression level by JPH2O3, quantitative PCR in OST cells. Format: cell-based, human. Conditions: 30 μM, 24 hours treatment. Here is the method: as §1, §2
The subject of data set [3] is advanced non-small cell lung cancers (Stage III/IV). Nature of the data set: Response to nivolumab in non-small cell lung cancer patients, determined by CT in accordance with RECIST. Format: in vivo, human. Here is the method: Cancer tissues were collected from 21 patients with first line anticancer therapy resistant/relapsed advanced non-small cell lung cancers (Stage III/IV) incorporated in this examination, and the expressions of LAT1 and PD-L1 were examined by immunohistochemistry using an anti-LAT1 antibody and an anti-PD-L1 antibody. Tumors were determined as positive when the cell membrane of the tumors, together with PD-L1 and LAT1, were stained. Tumors having 10% or more of PD-L1-positive cells were defined as having high PD-L1 expression, and tumors having 25% or more of LAT1-positive cells were defined as having high LAT1 expression.
The response rate was evaluated in accordance with the international criteria for which the tumor sizes are measured by CT and the tumors are classified into response, progression, or stable. The response refers to cases where 30% or more decrease is observed in the longer axis of the tumor after the administration of the agent. The progression refers to cases where the 20% or more increase is observed in the longer axis of the tumor after the administration of the agent. The stable refers to cases where the shrinkage of the tumor is insufficient to classify it as response and the increase of the tumor in comparison with the minimum sum of the longest axis after the start of the therapy is insufficient to classify it as progression.

Data set [4] relates to LAT1 mRNA. Nature of the data set: siRNA knockdown, LAT1 mRNA by quantitative PCR in WiDr cells. Format: cell-based, human. Conditions: 48 hours after siRNA introduction, relative value with control siRNA = 1, n = 4. Here is the method:
(§3) The suppression of mRNA expression of PD-L1 or LAT1 at the transcriptional level was attempted using siRNA. WiDr cells (derived from human colon-adenocarcinoma), SKN cells (human uterine leiomyosarcoma cells), and H520 cells (human pulmonary squamous cell carcinoma cells) were seeded in culture dishes. siRNA that suppresses the mRNA expression of PD-L1, siRNA that suppresses the mRNA expression of LAT1, or a control siRNA was introduced into cells. As the siRNA, Silencer (registered trademark) Select siRNAs of the Ambion (registered trademark) series from Thermo Fisher Scientific K.K. Specifically, siPD-L1 #2 (siRNA ID: s26548) set forth in SEQ ID NOs: 1 and 2 was used as the siRNA for suppressing the mRNA expression of PD-L1, siLAT1 #3 (siRNA ID: s15653) set forth in SEQ ID NOs: 3 and 4 was used as the siRNA for suppressing the mRNA expression of LAT1, and Silencer Select Negative control #2 (Cat #: 390847) was used as the control siRNA. Cells were collected 48 hours later, when the suppression effect on expression tends to be prominent, and mRNA expression levels of LAT1 and PD-L1 per cell were analyzed by quantitative PCR.
(§4) In Table 7, the mRNA expression levels per cell are expressed as relative values, with the mRNA expression level in the cells, to which the control siRNA was introduced, being 1. […]

Data set [5] concerns PD-L1 mRNA. Nature of the data set: siRNA knockdown, PD-L1 mRNA by quantitative PCR in WiDr cells. The data set is classed as cell-based, human. To be noted: 48 hours after siRNA introduction, relative value with control siRNA = 1, n = 4. As for the experimental part:
as §3, §4

The subject of data set [6] is LAT1 mRNA. Put plainly: siRNA knockdown, LAT1 mRNA by quantitative PCR in SKN cells. The data set is classed as cell-based, human. To be noted: 48 hours after siRNA introduction, relative value with control siRNA = 1, n = 4. Here is the method: as §3, §4
The test system of data set [7] is PD-L1 mRNA. Nature of the data set: siRNA knockdown, PD-L1 mRNA by quantitative PCR in SKN cells. Conditions: 48 hours after siRNA introduction, relative value with control siRNA = 1, n = 4. Format: cell-based, human. Here is the method: as §3, §4
In data set [8] the test system is LAT1 mRNA. Put plainly: siRNA knockdown, LAT1 mRNA by quantitative PCR in H520 cells. Format: cell-based, human. To be noted: 48 hours after siRNA introduction, relative value with control siRNA = 1, n = 4. As for the experimental part: as §3, §4
Data set [9] relates to PD-L1 mRNA. Put plainly: siRNA knockdown, PD-L1 mRNA by quantitative PCR in H520 cells. The data set is classed as cell-based, human. Conditions: 48 hours after siRNA introduction, relative value with control siRNA = 1, n = 4. Here is the method:
as §3, §4

The mark [10] stands for this setting: relative value with untreated control = 1, n = 4.
The mark [11] stands for this setting: relative value with untreated control = 1, n = 4, listed as JPH2O3.
[12] abbreviates: PD-L1 high expression group (8 patients), RECIST.
Where [13] appears, read: PD-L1 low expression group (13 patients), RECIST.
The mark [14] stands for this setting: high LAT1 expression group (9 patients), RECIST.
Where [15] appears, read: low LAT1 expression group (12 patients), RECIST.
Setting [16] is: single patient of FIG. 8, high PD-L1 and low LAT1 expression.

Values joined by “and” are separate entries in the source; they are usually repeats but may differ in a detail not shown here. Equal entries are not always repeated. Marks after values point to notes of the source that are not given here.

Regarding `Nc1cc(COc2c(Cl)cc(C[C@H](N)C(=O)O)cc2Cl)c2oc(-c3ccccc3)nc2c1` [JPH203, O-(5-amino-2-phenylbenzoxazol-7-yl)methyl-3,5-dichloro-L-tyrosine], the “PD-L1 mRNA expression level” value in the data set on PD-L1 mRNA [1] (setting [10]) is 12.26**; in the data set with PD-L1 mRNA [1] (setting [11]), “increased”; in the data set with PD-L1 mRNA [2] (setting [10]), 2.79*; with PD-L1 mRNA [2] (setting [11]), “increased”.

Consider nivolumab, for which the “patients exhibited a response” value was 4 patients in data set [3] (setting [12]); 3 patients in data set [3] (setting [13]); 7 patients in [3] (all 21 patients); 1 patient in [3] (setting [14]); 4 patients and 6 patients in data set [3] (setting [15]). Besides, the patients exhibited progression is 1 patient in data set [3] (setting [12]); 7 patients in data set [3] (setting [13]); 7 patients in data set [3] (all 21 patients); 6 patients and 5 patients in data set [3] (setting [14]); 3 patients and 2 patients in data set [3] (setting [15]). In [3] (all 21 patients), the “patients exhibited no response” value amounted to 14 patients. For the same compound, the response rate in data set [3] (all 21 patients) stood at 33%. The “outcome of nivolumab treatment” value is “responded” in data set [3] (setting [16]); “progression” in [3] (single patient of FIG. 9, high LAT1 and low PD-L1 expression); “progression” in data set [3] (single patient of FIG. 10, high PD-L1 and high LAT1 expression). The compound also yielded a progression-free survival in [3] (setting [16]) of no less than 10 months.

“si-LAT1: Silencer Select siRNA set forth in SEQ ID NOs: 3 and 4, suppressing the mRNA expression of LAT1 (chain 1 UGUCCAAUCUAGAUCCCAATT; chain 2 UUGGGAUCUAGAUUGGACACA; chemistry not given here)”: the “LAT1 mRNA expression level” value in the data set on LAT1 mRNA [4] worked out at 0.11; in the data set on LAT1 mRNA [6], 0.06; in the data set with LAT1 mRNA [8], 0.11. The “PD-L1 mRNA expression level” value in the data set on PD-L1 mRNA [5] is 1.82***; with PD-L1 mRNA [7], 1.04***; in the data set with PD-L1 mRNA [9], 0.82***.

In the case of “si-PD-L1: Silencer Select siRNA set forth in SEQ ID NOs: 1 and 2, suppressing the mRNA expression of PD-L1 (chain 1 GGACUCACUUGGUAAUUCUTT; chain 2 AGAAUUACCAAGUGAGUCCTT; chemistry not given here)”, the figures for the “LAT1 mRNA expression level” value in the data set with LAT1 mRNA [4], in the data set with LAT1 mRNA [6] and in the data set on LAT1 mRNA [8] were 5.01***, 1.52*** and 2.29***, respectively. The “PD-L1 mRNA expression level” value is recorded as 0.46 in the data set on PD-L1 mRNA [5], 0.24 in the data set with PD-L1 mRNA [7] and 0.37 in the data set on PD-L1 mRNA [9].
